ChEMBL document CHEMBL5512619, “Anticancer mechanism of coumarin-based derivatives” (Eur J Med Chem, 2024)

Legend:
[1] = system: SK-OV-3; assay: Antiproliferative activity against human SK-OV-3 cells measured after 21 hrs by MTT assay; type: functional, cell-based; conditions: SK-OV-3, 21 h
[2] = system: CCRF-CEM; assay: Antiproliferative activity against human CCRF-CEM cells assessed as reduction in cell viability measured after 24 hrs by MTT assay relative to control; type: functional; conditions: pooled result: one value given for 6 cell lines, strains, targets or settings
[3] = target: Albumin (Homo sapiens, UniProt P02768); assay: Reversible binding affinity to human serum albumin
Sequence of Albumin (P02768 whole entry): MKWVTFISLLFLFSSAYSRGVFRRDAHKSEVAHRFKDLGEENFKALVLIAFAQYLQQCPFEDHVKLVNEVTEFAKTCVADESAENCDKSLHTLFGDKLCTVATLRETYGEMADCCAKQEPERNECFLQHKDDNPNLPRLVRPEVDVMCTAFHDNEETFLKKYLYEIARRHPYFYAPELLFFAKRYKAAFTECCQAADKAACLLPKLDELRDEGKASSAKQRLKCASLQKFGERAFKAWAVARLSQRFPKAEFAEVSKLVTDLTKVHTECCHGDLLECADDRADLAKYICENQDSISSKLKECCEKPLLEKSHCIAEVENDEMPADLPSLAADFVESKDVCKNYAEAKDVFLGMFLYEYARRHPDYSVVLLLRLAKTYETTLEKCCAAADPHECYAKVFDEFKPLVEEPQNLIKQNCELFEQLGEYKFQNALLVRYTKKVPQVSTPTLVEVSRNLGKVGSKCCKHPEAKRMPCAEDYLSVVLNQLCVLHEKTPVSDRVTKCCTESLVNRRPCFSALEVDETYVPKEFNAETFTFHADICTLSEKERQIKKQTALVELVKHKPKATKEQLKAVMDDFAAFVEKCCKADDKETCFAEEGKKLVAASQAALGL

[4] = target: Carbonic anhydrase 1 (Homo sapiens, UniProt P00915); assay: Binding affinity to human CA1 assessed as inhibition constant incubated for 6 hrs by phenol red dye based stopped flow CO2 hydration assay
[5] = target: Carbonic anhydrase 2 (Homo sapiens, UniProt P00918); assay: Binding affinity to human CA2 assessed as inhibition constant incubated for 6 hrs by phenol red dye based stopped flow CO2 hydration assay
[6] = target: Steryl-sulfatase (Homo sapiens, UniProt P08842); assay: Inhibition of STS in human placental microsome; type: microsomes
Sequence of Steryl-sulfatase (P08842 whole entry): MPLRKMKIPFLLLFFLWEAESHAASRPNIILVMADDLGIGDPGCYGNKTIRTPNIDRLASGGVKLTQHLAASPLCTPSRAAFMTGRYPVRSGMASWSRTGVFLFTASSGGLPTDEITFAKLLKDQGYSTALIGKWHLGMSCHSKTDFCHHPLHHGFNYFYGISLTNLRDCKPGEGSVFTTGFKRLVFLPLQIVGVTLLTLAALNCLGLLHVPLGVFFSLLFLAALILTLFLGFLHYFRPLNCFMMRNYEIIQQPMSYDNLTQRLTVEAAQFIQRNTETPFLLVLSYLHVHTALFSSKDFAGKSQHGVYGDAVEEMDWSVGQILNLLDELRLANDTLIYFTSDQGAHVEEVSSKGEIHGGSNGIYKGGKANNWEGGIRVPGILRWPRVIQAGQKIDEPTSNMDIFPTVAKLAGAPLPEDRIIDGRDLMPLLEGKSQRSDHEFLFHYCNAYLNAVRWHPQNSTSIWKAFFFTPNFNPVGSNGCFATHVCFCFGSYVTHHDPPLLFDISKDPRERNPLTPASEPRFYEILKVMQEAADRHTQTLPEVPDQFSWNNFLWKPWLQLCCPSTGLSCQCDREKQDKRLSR

[7] = target: Vascular endothelial growth factor receptor 2 (Homo sapiens, UniProt P35968); assay: Inhibition of human VEGFR2
Sequence of Vascular endothelial growth factor receptor 2 (P35968 whole entry): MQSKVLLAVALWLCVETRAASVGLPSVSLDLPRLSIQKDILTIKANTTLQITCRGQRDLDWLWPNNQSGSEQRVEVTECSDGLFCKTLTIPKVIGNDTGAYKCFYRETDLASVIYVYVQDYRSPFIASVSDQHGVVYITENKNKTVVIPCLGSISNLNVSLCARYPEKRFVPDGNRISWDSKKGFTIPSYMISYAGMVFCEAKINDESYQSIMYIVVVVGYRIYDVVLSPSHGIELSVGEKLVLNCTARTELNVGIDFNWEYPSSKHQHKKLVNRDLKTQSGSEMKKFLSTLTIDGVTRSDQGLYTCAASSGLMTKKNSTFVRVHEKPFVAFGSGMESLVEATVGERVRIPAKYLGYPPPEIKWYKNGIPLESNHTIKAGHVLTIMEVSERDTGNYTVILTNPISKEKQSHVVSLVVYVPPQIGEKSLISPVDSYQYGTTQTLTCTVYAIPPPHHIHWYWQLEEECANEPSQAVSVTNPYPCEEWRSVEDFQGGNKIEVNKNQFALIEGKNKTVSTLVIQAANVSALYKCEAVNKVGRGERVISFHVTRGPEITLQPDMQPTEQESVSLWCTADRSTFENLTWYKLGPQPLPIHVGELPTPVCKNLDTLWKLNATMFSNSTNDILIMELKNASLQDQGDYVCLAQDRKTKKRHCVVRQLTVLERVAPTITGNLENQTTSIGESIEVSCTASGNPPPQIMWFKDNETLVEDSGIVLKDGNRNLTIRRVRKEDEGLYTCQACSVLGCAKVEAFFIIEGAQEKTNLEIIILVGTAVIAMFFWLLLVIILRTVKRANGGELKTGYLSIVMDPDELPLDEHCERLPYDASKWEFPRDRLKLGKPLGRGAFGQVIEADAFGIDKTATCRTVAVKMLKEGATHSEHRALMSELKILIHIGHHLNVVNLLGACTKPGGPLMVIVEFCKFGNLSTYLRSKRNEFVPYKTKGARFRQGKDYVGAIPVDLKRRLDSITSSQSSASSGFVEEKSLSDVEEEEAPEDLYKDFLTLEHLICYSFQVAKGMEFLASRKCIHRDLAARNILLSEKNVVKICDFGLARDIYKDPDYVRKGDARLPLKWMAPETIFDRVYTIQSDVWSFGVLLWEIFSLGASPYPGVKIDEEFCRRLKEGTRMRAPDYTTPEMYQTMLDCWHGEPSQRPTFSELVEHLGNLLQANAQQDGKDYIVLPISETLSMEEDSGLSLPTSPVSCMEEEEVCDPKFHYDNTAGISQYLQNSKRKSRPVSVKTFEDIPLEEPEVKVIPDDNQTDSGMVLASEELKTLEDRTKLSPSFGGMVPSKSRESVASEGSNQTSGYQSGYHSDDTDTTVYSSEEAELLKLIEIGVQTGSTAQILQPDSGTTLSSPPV

[8] = system: A549; assay: Antiproliferative activity against human A549 cells measured after 24 hrs by MTT assay; type: functional, cell-based; conditions: A549, 24 h
[9] = system: HCT-116; assay: Antiproliferative activity against human HCT-116 cells measured after 24 hrs by MTT assay; type: functional, cell-based; conditions: HCT-116, 24 h
[10] = system: HepG2; assay: Antiproliferative activity against human HepG2 cells measured after 24 hrs by MTT assay; type: functional, cell-based; conditions: HepG2, 24 h
[11] = system: HeLa; assay: Antiproliferative activity against human HeLa cells incubated for 24 hrs by MTT assay; type: functional, cell-based
[12] = system: HepG2; assay: Cytotoxicity against human HepG2 cells incubated for 72 hrs by MTT assay; type: functional, cell-based; conditions: HepG2, 72 h
[13] = target: Receptor tyrosine-protein kinase erbB-2 (Homo sapiens, UniProt P04626); assay: Inhibition of HER2 (unknown origin)
Sequence of Receptor tyrosine-protein kinase erbB-2 (P04626 whole entry): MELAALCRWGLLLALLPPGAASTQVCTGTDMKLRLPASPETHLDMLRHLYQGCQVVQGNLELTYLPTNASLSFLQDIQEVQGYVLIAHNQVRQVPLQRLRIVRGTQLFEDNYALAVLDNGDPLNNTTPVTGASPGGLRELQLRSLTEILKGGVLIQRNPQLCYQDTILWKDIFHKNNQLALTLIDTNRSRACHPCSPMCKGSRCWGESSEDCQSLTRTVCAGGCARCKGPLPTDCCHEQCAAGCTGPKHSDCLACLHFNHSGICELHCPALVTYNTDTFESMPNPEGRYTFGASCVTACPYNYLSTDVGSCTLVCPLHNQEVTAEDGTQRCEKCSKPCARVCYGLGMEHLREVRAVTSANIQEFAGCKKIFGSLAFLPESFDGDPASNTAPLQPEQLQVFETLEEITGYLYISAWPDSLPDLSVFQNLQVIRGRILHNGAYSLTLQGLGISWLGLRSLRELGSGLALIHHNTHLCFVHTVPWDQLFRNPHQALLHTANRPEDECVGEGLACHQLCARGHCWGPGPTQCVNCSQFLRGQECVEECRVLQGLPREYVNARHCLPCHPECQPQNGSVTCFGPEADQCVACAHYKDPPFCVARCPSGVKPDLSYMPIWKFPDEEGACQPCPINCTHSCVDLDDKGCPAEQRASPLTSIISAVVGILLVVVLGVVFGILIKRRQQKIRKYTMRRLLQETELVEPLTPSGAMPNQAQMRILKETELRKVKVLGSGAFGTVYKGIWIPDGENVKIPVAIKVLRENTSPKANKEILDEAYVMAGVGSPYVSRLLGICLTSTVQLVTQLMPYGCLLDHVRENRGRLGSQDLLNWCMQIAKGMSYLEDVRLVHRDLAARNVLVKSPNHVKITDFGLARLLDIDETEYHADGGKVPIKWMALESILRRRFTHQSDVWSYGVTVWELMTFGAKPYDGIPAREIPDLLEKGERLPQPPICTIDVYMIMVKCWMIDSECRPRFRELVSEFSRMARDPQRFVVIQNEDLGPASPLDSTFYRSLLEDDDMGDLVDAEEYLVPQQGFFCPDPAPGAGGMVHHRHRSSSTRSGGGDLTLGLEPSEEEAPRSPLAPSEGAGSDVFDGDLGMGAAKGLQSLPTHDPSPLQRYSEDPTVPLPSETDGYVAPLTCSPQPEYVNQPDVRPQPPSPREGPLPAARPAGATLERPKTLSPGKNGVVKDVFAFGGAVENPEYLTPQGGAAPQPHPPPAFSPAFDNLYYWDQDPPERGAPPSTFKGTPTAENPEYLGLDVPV

[14] = target: Epidermal growth factor receptor (Homo sapiens, UniProt P00533); assay: Inhibition of EGFR (unknown origin)
Sequence of Epidermal growth factor receptor (P00533 whole entry): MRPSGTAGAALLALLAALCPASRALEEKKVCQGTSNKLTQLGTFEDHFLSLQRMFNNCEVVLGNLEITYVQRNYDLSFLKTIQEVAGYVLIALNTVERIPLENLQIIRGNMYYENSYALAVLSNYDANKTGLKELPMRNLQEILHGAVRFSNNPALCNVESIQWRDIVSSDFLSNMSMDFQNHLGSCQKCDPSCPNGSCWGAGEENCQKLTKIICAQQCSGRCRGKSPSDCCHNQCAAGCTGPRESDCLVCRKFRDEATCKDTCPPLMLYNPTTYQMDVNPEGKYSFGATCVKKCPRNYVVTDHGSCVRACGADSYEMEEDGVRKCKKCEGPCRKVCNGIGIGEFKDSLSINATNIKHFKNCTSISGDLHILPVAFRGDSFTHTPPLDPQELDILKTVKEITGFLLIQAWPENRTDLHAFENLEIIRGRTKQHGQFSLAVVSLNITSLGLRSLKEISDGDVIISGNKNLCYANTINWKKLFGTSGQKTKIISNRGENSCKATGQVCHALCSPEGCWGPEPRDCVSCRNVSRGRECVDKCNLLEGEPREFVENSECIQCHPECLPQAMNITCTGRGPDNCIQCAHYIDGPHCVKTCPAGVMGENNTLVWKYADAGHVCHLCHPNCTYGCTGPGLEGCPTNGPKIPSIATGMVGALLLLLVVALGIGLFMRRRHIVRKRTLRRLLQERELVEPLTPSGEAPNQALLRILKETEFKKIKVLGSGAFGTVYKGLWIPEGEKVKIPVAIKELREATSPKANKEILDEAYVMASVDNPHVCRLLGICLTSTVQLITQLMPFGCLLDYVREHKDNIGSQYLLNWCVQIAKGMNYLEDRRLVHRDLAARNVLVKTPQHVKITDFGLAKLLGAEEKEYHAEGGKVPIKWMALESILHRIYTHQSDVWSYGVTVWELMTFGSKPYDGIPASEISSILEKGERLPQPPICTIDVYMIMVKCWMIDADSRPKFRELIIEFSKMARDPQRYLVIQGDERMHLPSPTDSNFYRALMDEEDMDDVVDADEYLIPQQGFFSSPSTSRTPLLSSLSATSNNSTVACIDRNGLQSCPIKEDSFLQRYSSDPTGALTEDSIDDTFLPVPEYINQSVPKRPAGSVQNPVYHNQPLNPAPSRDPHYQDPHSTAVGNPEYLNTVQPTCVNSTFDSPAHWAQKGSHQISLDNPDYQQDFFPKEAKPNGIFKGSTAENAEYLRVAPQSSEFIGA

[15] = system: HeLa; assay: Cytotoxicity against human HeLa cells incubated for 72 hrs by MTT assay; type: functional, cell-based
[16] = Cytotoxicity against human Lu1 cells incubated for 72 hrs by MTT assay; type: functional, cell-based; conditions: Lu1, 72 h
[17] = system: HCT-116; assay: cells; conditions: Homo sapiens, HCT-116, 72 h
Description: Antiproliferative activity against human HCT-116 cells measured after 72 hrs by SRB method

[18] = system: HepG2; assay: Antiproliferative activity against human HepG2 cells measured after 72 hrs by SRB method; type: functional, cell-based; conditions: HepG2, 72 h
[19] = system: MCF7; assay: Antiproliferative activity against human MCF7 cells measured after 72 hrs by SRB method; type: functional, cell-based; conditions: MCF7, 72 h
[20] = system: HeLa; assay: Antiproliferative activity against human HeLa cells measured after 72 hrs by SRB method; type: functional, cell-based

`O=c1ccc2ccc(O[C@@H]3O[C@H](CO[C@@H]4OC[C@](O)(CO)[C@H]4O)[C@@H](O)[C@H](O)[C@H]3O)cc2o1` showed an IC50 [1] greater than 100000 nM.

Compound `O=C(COc1ccccc1)Nc1ccc2oc(=O)ccc2c1` has an Activity [2] of 61%.

In the case of `Cc1cc(=O)oc2cc(NCc3ccccc3O)ccc12`, the Kd [3] is reported as 30 nM.

`COc1cc2oc(=O)ccc2cc1O[C@@H]1O[C@H](CO)[C@@H](O)[C@H](O)[C@H]1O` gave an IC50 [1] greater than 100000 nM.

Compound `Cc1cc(=O)oc2cc(OCc3cn(CCCCCCCCCCOc4ccc5ccc(=O)oc5c4)nn3)ccc12` has a Ki [4] greater than 10000 nM and a Ki [5] greater than 10000 nM.

Work on `Cc1c(Cc2ccccc2)c(=O)oc2cc(OS(N)(=O)=O)ccc12` yielded an IC50 [6] of 32 nM.

With `CCCCCCc1c(C)c2ccc(OS(N)(=O)=O)cc2oc1=O` the IC50 [6] was 8 nM.

In the case of `CN(C)c1ccc(C2CC(c3c(O)c4ccccc4oc3=O)=NN2c2nc(-c3ccccc3)c(/N=N/c3ccc(Cl)cc3)s2)cc1` (centres undefined), the IC50 [7] is reported as 34 nM.

For `Cc1cc(=O)oc2cc(OCc3cn(CCCCCCCCCCCCOc4ccc5ccc(=O)oc5c4)nn3)ccc12`, the Ki [4] was greater than 10000 nM.

Compound `CC1SC(N2N=C(c3cc4ccccc4oc3=O)CC2c2ccc(N(C)C)cc2)=NC1=O` (centres undefined) has an IC50 [7] of 34 nM.

`COc1ccc(-c2cc(-c3cc4ccccc4oc3=O)nc3nc(C)[nH]c(=O)c23)cc1` showed an IC50 [8] of 1100 nM, an IC50 [9] of 1100 nM and an IC50 [10] of 1100 nM.

With `COc1ccc(-c2cc(-c3cc4ccccc4oc3=O)nc(N)c2C(N)=O)cc1` the IC50 [8] was 1100 nM, the IC50 [9] was 1100 nM and the IC50 [10] was 1100 nM.

For `COc1ccc(-c2cc(-c3cc4ccccc4oc3=O)nc(NC(C)=O)c2C#N)cc1`, the IC50 [8] was 1100 nM, the IC50 [9] was 1100 nM and the IC50 [10] was 1100 nM.

In the case of `Cc1nc(N2N=C(c3cc4ccccc4oc3=O)CC2c2ccc(N(C)C)cc2)sc1/N=N/c1ccc(Cl)cc1` (centres undefined), the IC50 [7] is reported as 34 nM.

For `CC(C)=CC[C@@H](OCCc1ccc(C(=O)/N=C/c2c(Cl)c3ccccc3oc2=O)cc1)C1=CC(=O)c2c(O)ccc(O)c2C1=O`, the IC50 [11] was 3250 nM.

`CC(C)(O[C@@H]1O[C@H](CO)[C@@H](O)[C@H](O)[C@H]1O)[C@@H]1Cc2cc3ccc(=O)oc3cc2O1` showed an IC50 [1] greater than 100000 nM.

With `Cc1cc(=O)oc2cc(NCc3cc(I)cc(I)c3O)ccc12` the Kd [3] was 30 nM.

`CC(=O)OC[C@H]1O[C@@H](N(C(C)=O)C2=NN(C(C)=O)C(c3cc(=O)oc4ccc(OCCC(C)C)cc34)S2)[C@H](OC(C)=O)[C@@H](OC(C)=O)[C@@H]1OC(C)=O` (some centres undefined) gave an IC50 [12] of 1180 nM, an IC50 [13] of 130 nM and an IC50 [14] of 220 nM. The IC50 [15] was 1180 nM and the IC50 [16] was 1180 nM.

In the case of `Cc1c2c3c(ccc(C)c3oc1=O)[C@](C)(O)CO2`, the IC50 [17] is reported as 3950 nM, the IC50 [18] is reported as 3950 nM and the IC50 [19] is reported as 3950 nM. For the same compound, the IC50 [20] was 3950 nM.

`CC(=O)OC[C@H]1O[C@@H](N(C(C)=O)C2=NN(C(C)=O)C(c3cc(=O)oc4cc(OCC(C)C)ccc34)S2)[C@H](OC(C)=O)[C@@H](OC(C)=O)[C@@H]1OC(C)=O` (some centres undefined) gave an IC50 [12] of 1180 nM, an IC50 [13] of 130 nM and an IC50 [14] of 220 nM. The IC50 [15] was 1180 nM and the IC50 [16] was 1180 nM.

`Cc1cc(=O)oc2cc(NCc3cc(Br)cc(Br)c3O)ccc12` showed a Kd [3] of 30 nM.
